Test results reported in ChEMBL document CHEMBL4507319 (2021).

What was measured:
Conditions in all cases: Compound concentration 1.0 uM
[1] = molecular target: T1, Testis-specific serine/threonine-protein kinase 1 (Homo sapiens) (UniProt Q9BXA7); test: TSSK1(h) Eurofins kinase panel
T1 sequence (whole entry): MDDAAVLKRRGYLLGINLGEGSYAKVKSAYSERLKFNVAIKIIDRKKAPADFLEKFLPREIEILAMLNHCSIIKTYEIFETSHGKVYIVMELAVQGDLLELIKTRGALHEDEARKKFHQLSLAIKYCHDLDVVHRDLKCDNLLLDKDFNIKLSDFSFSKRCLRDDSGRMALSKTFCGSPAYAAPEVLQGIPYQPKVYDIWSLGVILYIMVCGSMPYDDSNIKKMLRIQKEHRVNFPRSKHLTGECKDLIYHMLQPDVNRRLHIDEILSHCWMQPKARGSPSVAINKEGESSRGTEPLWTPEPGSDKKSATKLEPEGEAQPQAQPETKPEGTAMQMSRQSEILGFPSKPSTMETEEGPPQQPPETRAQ

[2] = molecular target: T2, Mitogen-activated protein kinase kinase kinase kinase 3 (Homo sapiens) (UniProt Q8IVH8); test: MAP4K3(h) Eurofins kinase panel
T2 sequence (whole entry): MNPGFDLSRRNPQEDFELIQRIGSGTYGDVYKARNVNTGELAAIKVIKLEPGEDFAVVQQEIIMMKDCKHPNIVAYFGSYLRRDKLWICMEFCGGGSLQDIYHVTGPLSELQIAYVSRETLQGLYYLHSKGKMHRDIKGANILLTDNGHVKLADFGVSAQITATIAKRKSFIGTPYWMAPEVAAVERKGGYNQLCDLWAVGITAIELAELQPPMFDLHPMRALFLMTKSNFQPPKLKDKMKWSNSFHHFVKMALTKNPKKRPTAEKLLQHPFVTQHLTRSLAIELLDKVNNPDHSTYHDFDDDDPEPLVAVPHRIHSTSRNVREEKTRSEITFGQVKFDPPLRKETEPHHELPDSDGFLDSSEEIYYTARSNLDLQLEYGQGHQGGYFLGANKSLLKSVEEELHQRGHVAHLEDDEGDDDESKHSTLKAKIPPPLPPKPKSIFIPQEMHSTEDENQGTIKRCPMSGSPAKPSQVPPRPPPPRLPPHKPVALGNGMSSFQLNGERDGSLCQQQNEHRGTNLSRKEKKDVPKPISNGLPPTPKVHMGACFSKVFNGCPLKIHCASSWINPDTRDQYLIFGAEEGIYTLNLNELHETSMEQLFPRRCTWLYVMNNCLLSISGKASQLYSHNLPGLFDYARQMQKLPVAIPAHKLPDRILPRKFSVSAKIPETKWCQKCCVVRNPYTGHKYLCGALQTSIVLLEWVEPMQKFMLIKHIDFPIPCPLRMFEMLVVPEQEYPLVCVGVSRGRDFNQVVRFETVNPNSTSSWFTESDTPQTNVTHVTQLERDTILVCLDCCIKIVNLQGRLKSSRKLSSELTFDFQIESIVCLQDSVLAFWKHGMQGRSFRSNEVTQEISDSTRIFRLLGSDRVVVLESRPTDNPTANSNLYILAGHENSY

Homo sapiens = organism: Homo sapiens; test: CK2(h) Eurofins kinase panel
[3] = molecular target: Serine/threonine-protein kinase MARK2 (Homo sapiens) (UniProt Q7KZI7); test: PAR-1Balpha(h) Eurofins kinase panel
Chain of Serine/threonine-protein kinase MARK2 (Homo sapiens) (Q7KZI7 whole entry): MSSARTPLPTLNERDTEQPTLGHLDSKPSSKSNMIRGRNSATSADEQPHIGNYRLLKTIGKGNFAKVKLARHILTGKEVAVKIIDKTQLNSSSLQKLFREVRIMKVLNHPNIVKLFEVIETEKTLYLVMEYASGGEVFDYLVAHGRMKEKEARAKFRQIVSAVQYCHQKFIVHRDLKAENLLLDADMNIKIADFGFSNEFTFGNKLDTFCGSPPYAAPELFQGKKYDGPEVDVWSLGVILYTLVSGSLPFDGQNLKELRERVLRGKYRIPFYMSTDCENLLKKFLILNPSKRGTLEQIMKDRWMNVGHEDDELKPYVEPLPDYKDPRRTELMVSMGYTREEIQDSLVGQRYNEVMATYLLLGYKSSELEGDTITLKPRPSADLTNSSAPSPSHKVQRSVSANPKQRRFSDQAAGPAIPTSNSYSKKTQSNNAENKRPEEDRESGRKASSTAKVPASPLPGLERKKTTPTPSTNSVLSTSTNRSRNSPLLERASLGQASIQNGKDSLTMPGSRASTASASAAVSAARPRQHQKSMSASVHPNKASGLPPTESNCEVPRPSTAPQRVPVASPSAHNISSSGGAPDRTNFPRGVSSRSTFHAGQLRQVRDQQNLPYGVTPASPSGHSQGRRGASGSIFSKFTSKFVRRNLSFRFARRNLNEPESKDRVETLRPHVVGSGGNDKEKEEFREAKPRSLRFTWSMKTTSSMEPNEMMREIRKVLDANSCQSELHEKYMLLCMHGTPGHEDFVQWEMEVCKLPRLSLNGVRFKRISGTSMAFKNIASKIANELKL

[4] = molecular target: T3, Myosin-IIIb (Homo sapiens) (UniProt Q8WXR4); test: MYO3B(h) Eurofins kinase panel
T3 sequence (whole entry): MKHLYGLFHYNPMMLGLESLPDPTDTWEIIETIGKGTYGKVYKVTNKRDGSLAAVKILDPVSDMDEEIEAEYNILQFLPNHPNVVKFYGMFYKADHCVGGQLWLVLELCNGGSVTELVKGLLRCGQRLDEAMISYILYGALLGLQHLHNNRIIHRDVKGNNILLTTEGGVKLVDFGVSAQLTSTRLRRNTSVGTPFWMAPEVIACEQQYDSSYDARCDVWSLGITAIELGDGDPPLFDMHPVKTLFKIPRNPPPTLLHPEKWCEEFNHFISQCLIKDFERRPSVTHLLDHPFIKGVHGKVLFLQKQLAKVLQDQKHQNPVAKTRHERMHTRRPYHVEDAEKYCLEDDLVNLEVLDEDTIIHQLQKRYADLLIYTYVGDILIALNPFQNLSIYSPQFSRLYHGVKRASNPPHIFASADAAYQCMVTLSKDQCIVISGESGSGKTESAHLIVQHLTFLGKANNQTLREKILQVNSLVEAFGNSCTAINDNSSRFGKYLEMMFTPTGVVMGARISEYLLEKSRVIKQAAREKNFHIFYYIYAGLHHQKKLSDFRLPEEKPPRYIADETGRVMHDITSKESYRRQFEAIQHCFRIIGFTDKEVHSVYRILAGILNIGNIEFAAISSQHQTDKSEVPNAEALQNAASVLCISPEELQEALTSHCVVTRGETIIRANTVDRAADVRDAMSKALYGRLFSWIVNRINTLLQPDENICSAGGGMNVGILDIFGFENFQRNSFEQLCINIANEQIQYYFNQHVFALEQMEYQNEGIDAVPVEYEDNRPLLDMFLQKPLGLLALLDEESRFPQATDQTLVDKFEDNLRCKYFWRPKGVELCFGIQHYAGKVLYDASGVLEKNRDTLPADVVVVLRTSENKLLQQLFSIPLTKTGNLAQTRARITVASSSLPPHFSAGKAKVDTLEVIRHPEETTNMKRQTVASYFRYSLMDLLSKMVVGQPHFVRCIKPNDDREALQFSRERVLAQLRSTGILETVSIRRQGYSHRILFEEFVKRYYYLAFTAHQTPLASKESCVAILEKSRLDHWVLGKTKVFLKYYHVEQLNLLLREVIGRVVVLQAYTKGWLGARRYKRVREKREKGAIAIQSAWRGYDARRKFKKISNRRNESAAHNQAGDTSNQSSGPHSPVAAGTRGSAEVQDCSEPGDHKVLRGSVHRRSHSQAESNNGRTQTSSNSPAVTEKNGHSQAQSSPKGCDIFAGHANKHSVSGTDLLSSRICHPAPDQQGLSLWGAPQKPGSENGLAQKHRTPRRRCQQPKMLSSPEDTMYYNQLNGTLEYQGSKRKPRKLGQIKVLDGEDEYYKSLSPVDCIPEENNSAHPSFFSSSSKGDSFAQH

Measured: % residual kinase activity

CCc1ccccc1C(=O)Nc1n[nH]c2c(C)c(F)c(C3C(C#N)=C(C)N(C)C(C)=C3C#N)cc12 [BAY-3827]
inactive: [1] 84% | [2] 78% | Homo sapiens 94% | [3] 32% | [4] 24%
